Measured values: PubChem BioAssay (NCI)
Several values for one entry are separate records, joined by “and”; a condition that tells them apart may be missing. Equal values may be shown once.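 Protocol summary: plate cells (96-well), add compound at 5 concentrations, incubate 48 h, interpolate endpoints linearly. Here, GI50 denotes the concentration required for 50% inhibition of growth. TGI is the concentration that stops growth completely.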

What was measured:
Assay in all cases: NCI anticancer screen, dose series, 48 h
SR leukemia = system: SR leukemia
UO-31 renal = system: UO-31 renal
K-562 leukemia = system: K-562 leukemia
SF-539 CNS = system: SF-539 CNS
HT29 colon = system: HT29 colon
HOP-62 NSCLC = system: HOP-62 NSCLC
EKVX NSCLC = system: EKVX NSCLC
IGROV1 ovarian = system: IGROV1 ovarian
HS 578T breast = system: HS 578T breast
A549 NSCLC = system: A549 NSCLC
U251 CNS = system: U251 CNS
CCRF-CEM leukemia = system: CCRF-CEM leukemia
SK-OV-3 ovarian = system: SK-OV-3 ovarian
NCI/ADR-RES ovarian = system: NCI/ADR-RES ovarian
MDA-MB-435 = system: MDA-MB-435

Row | Compound | TGI (SR leukemia) [µM] | TGI (UO-31 renal) [µM] | TGI (K-562 leukemia) [µM] | TGI (SF-539 CNS) [µM] | TGI (HT29 colon) [µM] | TGI (HOP-62 NSCLC) [µM] | TGI (EKVX NSCLC) [µM] | TGI (IGROV1 ovarian) [µM] | TGI (HS 578T breast) [µM] | TGI (A549 NSCLC) [µM] | TGI (U251 CNS) [µM] | TGI (CCRF-CEM leukemia) [µM] | TGI (SK-OV-3 ovarian) [µM] | TGI (NCI/ADR-RES ovarian) [µM] | TGI (MDA-MB-435) [µM] | GI50 (SF-539 CNS) | GI50 (NCI/ADR-RES ovarian) [µM] | GI50 (HS 578T breast) | GI50 (U251 CNS)
1 | O=C1c2ccccc2C(=O)c2c(NCCCN3CCOCC3)ccc(NCCCN3CCOCC3)c21 | > 100 | 17.4 | > 100 | 4.03 | 12.7 | 13.1 | 46.6 | 29.4 | 28.5 | 16.2 | 19 | > 100 |  |  |  |  |  |  | 
2 | O=P(O)(CN1CCN(CP(=O)(O)c2ccccc2)CCN(CP(=O)(O)c2ccccc2)CC1)c1ccccc1 |  | > 100 | > 100 | > 100 | > 100 | > 100 | > 100 | > 100 |  | > 100 | > 100 | > 100 | > 100 | > 100 | > 100 |  |  |  | 
3 | N#Cc1c(N2CCN(c3ccc([N+](=O)[O-])cc3)CC2)[n+](=O)c2ccccc2n1[O-] | 5.69 |  | > 100 | > 100 | > 100 | > 100 | > 100 | > 100 |  | > 100 | > 100 | > 100 | > 100 | > 100 | > 100 |  |  |  | 
4 | COc1cc2c[n+](C)c3c4cc(OC)c(OC)cc4ccc3c2cc1OC |  | > 100 | > 100 | > 100 | > 100 | > 100 | > 100 | 97.7 | > 100 | > 100 | > 100 | > 100 | > 100 | > 100 | > 100 | 71.3 µM and 29.9 µM | > 100 | > 100 µM and 10.3 µM | 14.3 µM and 7.05 µM
5 | CCOC(=O)C1(Br)S(=O)(=O)OCCOS1(=O)=O | > 100 | > 100 | > 100 | > 100 | > 100 | > 100 | > 100 | > 100 |  | > 100 | > 100 | > 100 | > 100 |  |  |  |  |  | 
6 | COC(=O)C1=C(CCC[C@H](C)O[Si](C)(C)C(C)(C)C)NC(=O)N2[C@@H](CCO)CC[C@H]12 |  | 29.7 | > 100 | 31.6 | 29.8 | 27.7 | 26.1 | 31.8 |  | 25.6 | 29.6 |  | 30.4 | 29.1 | 39.7 |  |  |  | 
7 | O=C(NCCCN1CCN(CCCNC(=O)Nc2cccc3ccccc23)CC1)Nc1cccc2ccccc12 |  | 31.2 | > 100 | 34.3 | 44.3 | 23.9 | 33.2 | 35.9 | 49.1 | 33.5 | 18.9 | 71.3 |  | > 100 | 31.4 |  |  |  | 
8 | O=c1c2cc(I)ccc2nc(-c2cccs2)n1/N=C/c1ccccc1 | > 100 | > 100 | > 100 | > 100 | > 100 | > 100 | > 100 | > 100 |  | > 100 | > 100 | > 100 | > 100 | > 100 | > 100 |  |  |  | 
